Measurements: ChEMBL document CHEMBL1151757, “Synthesis, radiosynthesis, and biological evaluation of fluorine-18-labeled 2beta-carbo(fluoroalkoxy)-3beta-(3'-((Z)-2-haloethenyl)phenyl)nortropanes: candidate radioligands for in vivo imaging of the serotonin transporter with positron emission tomography” (J Med Chem, 2008)

Experiments:
[1] = Ratio of drug uptake in pons to cerebellum in anesthetized cynomolgus monkey after 125 mins postinjection; type: ADME, organism-based, Macaca fascicularis; details: in vivo
[2] = Ratio of drug uptake in pons to cerebellum in anesthetized cynomolgus monkey after 175 mins postinjection; type: ADME, organism-based, Macaca fascicularis; details: in vivo
[3] = Ratio of drug uptake in medulla to cerebellum in anesthetized cynomolgus monkey after 95 mins postinjection; type: ADME, organism-based, Macaca fascicularis; details: in vivo
[4] = Drug uptake in anesthetized cynomolgus monkey brain occipital lobe after 18.5 mins postinjection; type: ADME, organism-based, Macaca fascicularis; details: in vivo
Putamen [5] = assay: Drug uptake in anesthetized cynomolgus monkey brain putamen after 125 mins postinjection; type: ADME, organism-based, Macaca fascicularis; details: in vivo
Putamen [6] = assay: Drug uptake in anesthetized cynomolgus monkey brain putamen after 235 mins postinjection; type: ADME, organism-based, Macaca fascicularis; details: in vivo
[7] = Ratio of drug uptake in occipital lobe to cerebellum in anesthetized cynomolgus monkey after 185 mins postinjection; type: ADME, organism-based, Macaca fascicularis; details: in vivo
Midbrain [8] = assay: Drug uptake in anesthetized cynomolgus monkey brain midbrain after 155 mins postinjection; type: ADME, organism-based, Macaca fascicularis; details: in vivo
Pons [9] = assay: Drug uptake in anesthetized cynomolgus monkey brain pons after 1.5 mins postinjection; type: ADME, organism-based, Macaca fascicularis; details: in vivo, 0.025 h
Pons [10] = assay: Drug uptake in anesthetized cynomolgus monkey brain pons after 4.5 mins postinjection; type: ADME, organism-based, Macaca fascicularis; details: in vivo, 0.075 h
Pons [11] = assay: Drug uptake in anesthetized cynomolgus monkey brain pons after 9.5 mins postinjection; type: ADME, organism-based, Macaca fascicularis; details: in vivo
Pons [12] = assay: Drug uptake in anesthetized cynomolgus monkey brain pons after 95 mins postinjection; type: ADME, organism-based, Macaca fascicularis; details: in vivo
Midbrain [13] = assay: Drug uptake in anesthetized cynomolgus monkey brain midbrain after 205 mins postinjection; type: ADME, organism-based, Macaca fascicularis; details: in vivo
Pons [14] = assay: Drug uptake in anesthetized cynomolgus monkey brain pons after 195 mins postinjection; type: ADME, organism-based, Macaca fascicularis; details: in vivo, 3.25 h
Medulla [15] = assay: Drug uptake in anesthetized cynomolgus monkey brain medulla after 185 mins postinjection; type: ADME, organism-based, Macaca fascicularis; details: in vivo
Medulla [16] = assay: Drug uptake in anesthetized cynomolgus monkey brain medulla after 205 mins postinjection; type: ADME, organism-based, Macaca fascicularis; details: in vivo
[17] = Drug uptake in anesthetized cynomolgus monkey brain occipital lobe after 195 mins postinjection; type: ADME, organism-based, Macaca fascicularis; details: in vivo, 3.25 h
[18] = Ratio of drug uptake in frontal lobe to cerebellum in anesthetized cynomolgus monkey after 195 mins postinjection; type: ADME, organism-based, Macaca fascicularis; details: in vivo, 3.25 h
[19] = Ratio of drug uptake in frontal lobe to cerebellum in anesthetized cynomolgus monkey after 205 mins postinjection; type: ADME, organism-based, Macaca fascicularis; details: in vivo
Caudate [20] = assay: Drug uptake in anesthetized cynomolgus monkey brain caudate after 195 mins postinjection; type: ADME, organism-based, Macaca fascicularis, Caudate nucleus; details: in vivo, 3.25 h
Putamen [21] = assay: Drug uptake in anesthetized cynomolgus monkey brain putamen after 185 mins postinjection; type: ADME, organism-based, Macaca fascicularis; details: in vivo
Pons [22] = assay: Drug uptake in anesthetized cynomolgus monkey brain pons after 115 mins postinjection; type: ADME, organism-based, Macaca fascicularis; details: in vivo
Medulla [23] = assay: Drug uptake in anesthetized cynomolgus monkey brain medulla after 0.5 mins postinjection; type: ADME, organism-based, Macaca fascicularis; details: in vivo
Medulla [24] = assay: Drug uptake in anesthetized cynomolgus monkey brain medulla after 1.5 mins postinjection; type: ADME, organism-based, Macaca fascicularis; details: in vivo, 0.025 h
Medulla [25] = assay: Drug uptake in anesthetized cynomolgus monkey brain medulla after 75 mins postinjection; type: ADME, organism-based, Macaca fascicularis; details: in vivo, 1.25 h
[26] = Ratio of drug uptake in putamen to cerebellum in anesthetized cynomolgus monkey after 45 mins postinjection; type: ADME, organism-based, Macaca fascicularis; details: in vivo, 0.75 h
[27] = Drug uptake in anesthetized cynomolgus monkey brain cerebellum after 65 mins postinjection; type: ADME, organism-based, Macaca fascicularis; details: in vivo
Medulla [28] = assay: Drug uptake in anesthetized cynomolgus monkey brain medulla after 115 mins postinjection; type: ADME, organism-based, Macaca fascicularis; details: in vivo
[29] = Drug uptake in anesthetized cynomolgus monkey brain cerebellum after 225 mins postinjection; type: ADME, organism-based, Macaca fascicularis; details: in vivo, 3.75 h
[30] = Ratio of drug uptake in thalamus to cerebellum in anesthetized cynomolgus monkey after 155 mins postinjection; type: ADME, organism-based, Macaca fascicularis; details: in vivo
Caudate [31] = assay: Drug uptake in anesthetized cynomolgus monkey brain caudate after 2.5 mins postinjection; type: ADME, organism-based, Macaca fascicularis, Caudate nucleus; details: in vivo
Caudate [32] = assay: Drug uptake in anesthetized cynomolgus monkey brain caudate after 6.5 mins postinjection; type: ADME, organism-based, Macaca fascicularis, Caudate nucleus; details: in vivo
Caudate [33] = assay: Drug uptake in anesthetized cynomolgus monkey brain caudate after 95 mins postinjection; type: ADME, organism-based, Macaca fascicularis, Caudate nucleus; details: in vivo
Caudate [34] = assay: Drug uptake in anesthetized cynomolgus monkey brain caudate after 155 mins postinjection; type: ADME, organism-based, Macaca fascicularis, Caudate nucleus; details: in vivo
Caudate [35] = assay: Drug uptake in anesthetized cynomolgus monkey brain caudate after 215 mins postinjection; type: ADME, organism-based, Macaca fascicularis, Caudate nucleus; details: in vivo
[36] = Ratio of drug uptake in occipital lobe to cerebellum in anesthetized cynomolgus monkey after 12.5 mins postinjection; type: ADME, organism-based, Macaca fascicularis; details: in vivo
Thalamus [37] = assay: Drug uptake in anesthetized cynomolgus monkey brain thalamus after 45 mins postinjection; type: ADME, organism-based, Macaca fascicularis; parameters: unit not given here; details: in vivo, 0.75 h
Putamen [38] = assay: Drug uptake in anesthetized cynomolgus monkey brain putamen after 95 mins postinjection; type: ADME, organism-based, Macaca fascicularis; parameters: unit not given here; details: in vivo
Putamen [39] = assay: Drug uptake in anesthetized cynomolgus monkey brain putamen after 105 mins postinjection; type: ADME, organism-based, Macaca fascicularis; parameters: unit not given here; details: in vivo, 1.75 h
Thalamus [40] = assay: Drug uptake in anesthetized cynomolgus monkey brain thalamus after 95 mins postinjection; type: ADME, organism-based, Macaca fascicularis; parameters: unit not given here; details: in vivo
Thalamus [41] = assay: Drug uptake in anesthetized cynomolgus monkey brain thalamus after 105 mins postinjection; type: ADME, organism-based, Macaca fascicularis; parameters: unit not given here; details: in vivo, 1.75 h
Thalamus [42] = assay: Drug uptake in anesthetized cynomolgus monkey brain thalamus after 135 mins postinjection; type: ADME, organism-based, Macaca fascicularis; parameters: unit not given here; details: in vivo, 2.25 h
Thalamus [43] = assay: Drug uptake in anesthetized cynomolgus monkey brain thalamus after 225 mins postinjection; type: ADME, organism-based, Macaca fascicularis; parameters: unit not given here; details: in vivo, 3.75 h
Midbrain [44] = assay: Drug uptake in anesthetized cynomolgus monkey brain midbrain after 2.5 mins postinjection; type: ADME, organism-based, Macaca fascicularis; parameters: unit not given here; details: in vivo
Midbrain [45] = assay: Drug uptake in anesthetized cynomolgus monkey brain midbrain after 27.5 mins postinjection; type: ADME, organism-based, Macaca fascicularis; parameters: unit not given here; details: in vivo
Midbrain [46] = assay: Drug uptake in anesthetized cynomolgus monkey brain midbrain after 55 mins postinjection; type: ADME, organism-based, Macaca fascicularis; parameters: unit not given here; details: in vivo
Midbrain [47] = assay: Drug uptake in anesthetized cynomolgus monkey brain midbrain after 75 mins postinjection; type: ADME, organism-based, Macaca fascicularis; parameters: unit not given here; details: in vivo, 1.25 h
Midbrain [48] = assay: Drug uptake in anesthetized cynomolgus monkey brain midbrain after 125 mins postinjection; type: ADME, organism-based, Macaca fascicularis; parameters: unit not given here; details: in vivo

## O=C(OCC[18F])C1C2CCC(CC1c1ccc(/C=C\I)cc1)N2 (stereo not drawn)
[1]
  Ratio: 2.1
[2]
  Ratio: 2.7
[3]
  Ratio: 1.8
[4]
  Drug uptake: 1.81
Putamen [5]
  Drug uptake: 4.34
Putamen [6]
  Drug uptake: 3.83
[7]
  Ratio: 1.4
Midbrain [8]
  Drug uptake: 4.65
Pons [9]
  Drug uptake: 0.06
Pons [10]
  Drug uptake: 0.8
Pons [11]
  Drug uptake: 1.62
Pons [12]
  Drug uptake: 3.5
Midbrain [13]
  Drug uptake: 4.57
Pons [14]
  Drug uptake: 3.42
Medulla [15]
  Drug uptake: 3.41
Medulla [16]
  Drug uptake: 3.32
[17]
  Drug uptake: 1.82
[18]
  Ratio: 1.3
[19]
  Ratio: 1.4
Caudate [20]
  Drug uptake: 2.85
Putamen [21]
  Drug uptake: 4.01
Pons [22]
  Drug uptake: 3.65
Medulla [23]
  Drug uptake: 0
Medulla [24]
  Drug uptake: 0.14
Medulla [25]
  Drug uptake: 3.82
[26]
  Ratio: 1.4
[27]
  Drug uptake: 2.44
Medulla [28]
  Drug uptake: 3.8
[29]
  Drug uptake: 1.08
[30]
  Ratio: 2.7
Caudate [31]
  Drug uptake: 0.29
Caudate [32]
  Drug uptake: 1.13
Caudate [33]
  Drug uptake: 3.05
Caudate [34]
  Drug uptake: 3.03
Caudate [35]
  Drug uptake: 2.81
[36]
  Ratio: 0.8
Thalamus [37]
  Drug uptake: 3.63
Putamen [38]
  Drug uptake: 4.36
Putamen [39]
  Drug uptake: 4.34
Thalamus [40]
  Drug uptake: 4.15
Thalamus [41]
  Drug uptake: 4.11
Thalamus [42]
  Drug uptake: 3.99
Thalamus [43]
  Drug uptake: 3.35
Midbrain [44]
  Drug uptake: 0.4
Midbrain [45]
  Drug uptake: 3.19
Midbrain [46]
  Drug uptake: 4.01
Midbrain [47]
  Drug uptake: 4.41
Midbrain [48]
  Drug uptake: 4.62
